Source: US7250397B2, “Antiarrhythmic peptides” (Zealand Pharma A/S, priority 2000, dated 2007)

Tests used:
[1] = tested on: phospho-inositol turnover in neonatal rat cardiomyocytes; assay: Phosphoinositol turnover in rat primary cardiomyocytes; format: cell-based; conditions: 100 nM; control conditions
Method: Neonatal Wistar rats (1-2 days old) are used. Hank's calcium- and magnesium-free balanced salt solution, buffered with 10 mM HEPES is used for washing during cell separation procedures. The hearts are excised, the ventricles isolated and the tissue cut into small pieces. The myocardial cells are isolated by stepwise enzymatic degradation with collagenase 0.05%, as described by^[35]. After repeated rounds of centrifugation and washing, the precipitated cells are resuspended in culture medium M199 with Earle's salt, 10% NCS, penicillin (75 U/mL), and streptomycin (75 U/mL) and pre-plated in a Petri dish for 90 minutes. The non-adherent cells are collected in the culture medium and plated in multidishes at 2.5*10^5 cells/well. The cultures are kept in a water-saturated CO2-incubator at 37° C. The cardiomyocyte cultures are used for analyses after 6-7 days.
Cardiomyocyte cultures are incubated for 48 hours in culture medium containing […] myo-[2-^3H]inositol to label the inositol phospholipids. On the day of analysis the medium is replaced by a buffer solution containing lithium and incubated at 37° C., as described by Meier et al.^[36]. After at least five minutes this buffer is replaced by the same volume of buffer containing test compound and incubated for exactly 20 minutes. The reaction is stopped by rapid replacement of the buffer by ice cold 4% v/v perchloric acid (PCA) and incubation for at least 20 minutes at 0° C. The PCA-extract is neutralised and the [^3H]inositol phosphates are separated by anion-exchange chromatography using Amprep™ columns containing 100 mg SAX Quaternary amine. The [^3H]inositol mono-phosphates are eluted and radioactivity in the fraction measured by liquid scintillation counting.
Before adding test substances to the cultures, the cells are depleted of glucose and oxygen by incubating them in a N2-atmosphere in glucose-free lithium-buffer for 10 minutes at 37° C. Control cells are incubated likewise only at normal atmospheric conditions and in a buffer containing glucose.

[2] = tested on: isolated guinea pig myocytes; assay: Intercellular conductance Gj (GJIC), double patch clamp of cardiomyocyte pairs; format: cell-based; conditions: 10^−8 M
Method: Cell preparation: Cells were isolated from guinea pig hearts by perfusion with collagenase according to the Langendorf method. In brief, guinea pigs were heparinised with an intraperitoneal injection of heparin (1000 IU/kg). After 30 minutes the animal was sacrificed by a blow to the neck followed by cutting the spine at the neck. The chest was opened and the aorta cannulated. Then the cannula was fixed to the aorta by a ligature, exised and perfused with Tyrodes solution for a couple of minutes. The Tyrodes solution had the following composition in mM: Na^+ 135.33, K^+ 4, Cl^− 145, PO4^− 0.33, Mg^2+ 1, Ca^2+ 2, Hepes 10, Glucose 10, pH 7.4. All perfusion media were bubled by 100% oxygen. […]. Then the heart was perfused with high K^+ solution with 0.6 mg/ml collagenase, this was done for 10-15 minutes judged from the apperance of the heart. The atria were cut off, the ventricles minced, whereafter the pieces were stirred in the collagenase solution by gently bubbling with 100% oxygen. […]
Where Ip,pulse and Ip,rest represent the current in the passive cell during the pulse and before the pulse respectively, and Up and Ua represent the voltage of the passive and active cell. […] However, the change in Gj value to a standardized intervention like a drug can be analysed by comparing the relative changes in Gj.

For “Ac-D-Tyr-D-Pro-D-4Hyp-Gly-D-Ala-Gly-NH2 [Compound 2]”, the “effect on noradrenaline (300 nM) induced increase in phospho-inositol turnover” value [1] was “no further effect” and the “time of stimulation until steady-state level of Gj” value [2] was “about 400 seconds”.
